Calls of active or inactive are those of the source. The calls are words filed in the database; no cut-off is given here.
Legend:
[1] = Stability of the compound at 100 uM in presence of DTT; format: physicochemical
HGC-27 = test: Cytotoxicity against human HGC-27 cells assessed as inhibition of cell growth incubated for 72 hrs by SRB assay; format: functional, cell-based; conditions: HGC-27, 72 h
Exportin-1 [2] = target: T1, Exportin-1 (Homo sapiens, UniProt O14980); test: Inhibition of human CRM1 at 50 uM by GST-NES MVM based pulldown assay
T1 sequence (O14980 whole entry): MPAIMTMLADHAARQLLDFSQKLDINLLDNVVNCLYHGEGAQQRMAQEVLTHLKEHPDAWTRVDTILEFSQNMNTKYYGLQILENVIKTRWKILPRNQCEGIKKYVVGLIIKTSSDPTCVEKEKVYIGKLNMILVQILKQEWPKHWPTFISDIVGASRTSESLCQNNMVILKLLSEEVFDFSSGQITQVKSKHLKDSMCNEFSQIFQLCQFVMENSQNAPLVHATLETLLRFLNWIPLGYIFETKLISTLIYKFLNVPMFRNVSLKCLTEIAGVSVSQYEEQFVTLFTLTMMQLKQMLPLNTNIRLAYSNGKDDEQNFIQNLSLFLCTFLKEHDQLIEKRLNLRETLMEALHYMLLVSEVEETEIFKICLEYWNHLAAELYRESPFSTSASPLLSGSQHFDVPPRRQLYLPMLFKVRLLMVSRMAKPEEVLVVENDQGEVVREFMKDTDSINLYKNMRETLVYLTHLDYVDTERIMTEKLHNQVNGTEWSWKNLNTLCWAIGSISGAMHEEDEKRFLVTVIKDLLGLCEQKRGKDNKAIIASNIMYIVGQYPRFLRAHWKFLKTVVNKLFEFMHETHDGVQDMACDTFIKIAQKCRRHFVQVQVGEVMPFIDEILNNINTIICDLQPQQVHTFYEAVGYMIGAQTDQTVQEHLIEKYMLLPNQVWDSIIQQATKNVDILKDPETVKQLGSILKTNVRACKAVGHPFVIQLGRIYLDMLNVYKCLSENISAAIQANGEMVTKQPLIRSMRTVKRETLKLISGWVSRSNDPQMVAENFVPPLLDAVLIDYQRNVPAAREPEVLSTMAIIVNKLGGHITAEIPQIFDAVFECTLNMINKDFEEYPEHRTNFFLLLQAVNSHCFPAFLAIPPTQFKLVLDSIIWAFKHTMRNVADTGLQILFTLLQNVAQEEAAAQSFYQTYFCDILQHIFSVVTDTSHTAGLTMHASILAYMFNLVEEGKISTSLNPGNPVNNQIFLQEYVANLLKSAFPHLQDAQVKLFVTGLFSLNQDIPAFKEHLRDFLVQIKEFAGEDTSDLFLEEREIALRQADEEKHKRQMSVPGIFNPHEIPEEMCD

Exportin-1 [3] = target: T1, Exportin-1; test: Binding affinity to CRM1 in human HeLa cells assessed as thermal stabilization at 100 uM at 4 to 90 degreeC incubated for 3 mins by […] analysis; format: cell-based
Exportin-1 [4] = target: T1, Exportin-1; test: Inhibition of human CRM1 at 3 to 30 uM by GST-NES MVM based pulldown assay; conditions: dose 3-30 µM
Exportin-1 [5] = target: T1, Exportin-1; test: Non-covalent inhibition of human CRM1 at 100 uM by GST-NES MVM based pulldown assay
[6] = system: Exportin-1 (Homo sapiens), O14980 [C528S]; test: Inhibition of human CRM1 C7 fragment C528S mutant at 50 to 100 uM by GST-NES MVM based pulldown assay; conditions: dose 50-100 µM
Sequence of Exportin-1 (Homo sapiens), O14980 [C528S] (O14980 whole entry C528S, the tested form may be a part): as the sequence (O14980 whole entry) above, with C528S counted along it

MGC-803 = test: Cytotoxicity against human MGC-803 cells assessed as inhibition of cell growth at 50 uM incubated for 72 hrs by SRB assay; format: functional, cell-based
MDA-MB-453 [7] = test: Synergistic cytotoxicity against human MDA-MB-453 cells assessed as combination index at 100 uM incubated for 3 days in presence of 270 nM doxorubicin by SRB assay; format: functional; conditions: time 3 day
PANC-1 = test: Cytotoxicity against human PANC-1 cells assessed as inhibition of cell growth at 50 uM incubated for 72 hrs by SRB assay; format: functional, cell-based
A2780 = test: Cytotoxicity against human A2780 cells assessed as inhibition of cell growth at 50 uM incubated for 72 hrs by SRB assay; format: functional, cell-based
SW480 = test: Cytotoxicity against human SW480 cells assessed as inhibition of cell growth at 50 uM incubated for 72 hrs by SRB assay; format: functional, cell-based
MDA-MB-453 [8] = test: Cytotoxicity against human MDA-MB-453 cells assessed as inhibition of cell growth at 50 uM incubated for 72 hrs by SRB assay; format: functional, cell-based
Exportin-1 [9] = target: T1, Exportin-1; test: Inhibition of CRM1 in semi-permeabilized human HeLa cells transfected with GFP-NES-NLS fusion plasmid assessed as inhibition of nuclear export of cargoes at 50 to 100 uM incubated for 30 mins by immunostaining analysis; format: cell-based; conditions: dose 50-100 µM
HeLa = test: Cytotoxicity against human HeLa cells assessed as inhibition of cell growth at 50 uM incubated for 72 hrs by SRB assay; format: functional, cell-based
Exportin-1 [10] = target: T1, Exportin-1; test: Inhibition of CRM1 in intact human HeLa cells transfected with GFP-NES-NLS fusion plasmid assessed as inhibition of nuclear export of cargoes at 200 uM incubated for 30 mins by immunostaining analysis; format: cell-based
MDA-MB-453 [11] = test: Synergistic cytotoxicity against human MDA-MB-453 cells assessed as combination index at 100 uM incubated for 3 days in presence of 810 nM doxorubicin by SRB assay; format: functional; conditions: time 3 day
MDA-MB-453 [12] = test: Synergistic cytotoxicity against human MDA-MB-453 cells assessed as combination index at 100 uM incubated for 3 days in presence of 90 nM doxorubicin by SRB assay; format: functional; conditions: time 3 day
HepG2 = test: Cytotoxicity against human HepG2 cells assessed as inhibition of cell growth at 50 uM incubated for 72 hrs by SRB assay; format: functional, cell-based
MDA-MB-453 [13] = test: Synergistic cytotoxicity against human MDA-MB-453 cells assessed as combination index at 100 uM incubated for 3 days in presence of 10 nM doxorubicin by SRB assay; format: functional; conditions: time 3 day
Exportin-1 [14] = target: T1, Exportin-1; test: Binding affinity to NES groove of human CRM1 C7 fragment at 50 to 100 uM by GST-NES MVM based pulldown assay; conditions: dose 50-100 µM
Exportin-1 [15] = target: T1, Exportin-1; test: Competitive inhibition of human CRM1 assessed as dissociation constant incubated in presence of RanGTP and IAF-conjugated protein kinase inhibitor peptide by MST assay
Ishikawa = test: Cytotoxicity against human Ishikawa cells assessed as inhibition of cell growth at 50 uM incubated for 72 hrs by SRB assay; format: functional, cell-based
MDA-MB-453 [16] = test: Synergistic cytotoxicity against human MDA-MB-453 cells assessed as combination index at 100 uM incubated for 3 days in presence of 30 nM doxorubicin by SRB assay; format: functional; conditions: time 3 day

CC(C)CCNC/C=C/[S+]([O-])c1cc(C(F)(F)F)cc(C(F)(F)F)c1 (stereo unspecified)
Stability [1]: Unstable

COc1cc(C(=O)N(C)S(=O)(=O)c2ccccc2C)ccc1Cc1cn(C)c2ccc(NC(=O)OC3CCCC3)cc12
IC50 (HGC-27): 285 µM
inhibition (Exportin-1 [2]): inactive
inhibition (Exportin-1 [2]; tested as the 2H-labelled form): inactive
Activity (Exportin-1 [3]): inactive

[2H]C([2H])([2H])N(C(=O)c1ccc(Cc2cn(C)c3ccc(NC(=O)OC4CCCC4)cc23)c(OC)c1)S(=O)(=O)c1ccccc1C
IC50 (HGC-27): 457 µM

COC(=O)Nc1ccc2c(c1)c(Cc1ccc(C(=O)NS(=O)(=O)c3ccccc3C)cc1OC)cn2C
IC50 (HGC-27): 44 µM
inhibition (Exportin-1 [4]): Active

COc1cc(C(=O)NS(=O)(=O)c2cccc(C)c2)ccc1Cc1cn(C)c2ccc(NC(=O)OC3CCCC3)cc12
IC50 (HGC-27): 44 µM
inhibition (Exportin-1 [4]): Active

COc1cc(C(=O)NS(=O)(=O)c2ccc(C)cc2)ccc1Cc1cn(C)c2ccc(NC(=O)OC3CCCC3)cc12
IC50 (HGC-27): 44 µM

CC(O)(CS(=O)(=O)c1ccc(F)cc1)C(=O)Nc1ccc(C#N)c(C(F)(F)F)c1 (stereo unspecified)
inhibition (Exportin-1 [5]): inactive

N[C@@H](CC(=O)N1CCn2c(nnc2C(F)(F)F)C1)Cc1cc(F)c(F)cc1F
inhibition (Exportin-1 [5]): inactive

O=C(/C=C\n1cnc(-c2cc(C(F)(F)F)cc(C(F)(F)F)c2)n1)NNc1cnccn1
inhibition [6]: Active

COc1cc(C(=O)NS(=O)(=O)c2ccccc2C)ccc1Cc1cn(C)c2ccc(NC(=O)OC3CCCC3)cc12 [ZAFIRLUKAST]
inhibition (MGC-803): Active
CI (MDA-MB-453 [7]): 0.88
inhibition (PANC-1): Active
IC50 (HGC-27): 44 µM
inhibition (A2780): Active
inhibition (SW480): Active
inhibition (MDA-MB-453 [8]): Active
inhibition (Exportin-1 [5]): Active
inhibition (Exportin-1 [9]): Active
inhibition (HeLa): Active
inhibition (Exportin-1 [10]): Active
CI (MDA-MB-453 [11]): 0.58
Stability [1]: Stable
CI (MDA-MB-453 [12]): 0.78
inhibition [6]: inactive
inhibition (HepG2): Active
CI (MDA-MB-453 [13]): 0.78
Activity (Exportin-1 [3]): Active
Activity (Exportin-1 [14]): Active
Kd (Exportin-1 [15]): 10 µM
inhibition (Ishikawa): Active
CI (MDA-MB-453 [16]): 0.78

Source: ChEMBL document CHEMBL5316307, “Searching for Novel Noncovalent Nuclear Export Inhibitors through a Drug Repurposing Approach” (J Med Chem, 2023)
